“Also recorded” adds a separate entry of the source. Like-named read-outs stand apart in the source and are kept apart here.
Tests used:
[1] = Serum metabolite concentrations and parent compound/metabolite ratios at baseline and in the third trimester (TDM, linear mixed model); details: for Change of parent compound or metabolite serum concentration in pregnancy (in words): analyses with metabolite data (Table 3); for Change from baseline conc., Estimate (parent compound or metabolite) / Parent compound / metabolite ratio (PMR), change from baseline, estimate: baseline to third trimester (gestational week 34); for Baseline conc., Estimate (parent compound or metabolite) / Parent compound / metabolite ratio (PMR), baseline estimate: day 0 (non-pregnant); for Baseline conc., Estimate (parent compound or metabolite) / Loge serum concentration, Intercept estimate (parent compound or metabolite): only analyses with metabolite data; for Baseline conc., Estimate (parent compound or metabolite): dose-adjusted to DDD; for Loge serum concentration, Intercept estimate (parent compound or metabolite) / Loge serum concentration, Change per gestational week estimate (parent compound or metabolite): loge-transformed; for Loge serum concentration, Intercept estimate (parent compound or metabolite): baseline (day 0 of pregnancy); for Loge serum concentration, Change per gestational week estimate (parent compound or metabolite) / Loge PMR, Change per gestational week estimate: per week of pregnancy; for Parent compound / metabolite ratio (PMR), third trimester estimate: gestational week 34; for Loge PMR, Intercept estimate / Loge PMR, Change per gestational week estimate: loge-transformed parent compound/metabolite ratio; for Loge PMR, Intercept estimate: baseline
Description: (§1) Quantification of the drug concentrations was performed with liquid chromatography-mass spectrometry/tandem mass spectrometry (LC-MS/LC-MS/MS). […] In brief, the drugs were extracted from serum by liquid-liquid extraction, using a mixture of hexane, acetonitrile and/or butanol, or dichloromethane and isopropanol. Thereafter, the analytes were separated on C18 columns using methanol, acetonitrile, formic acid or ammonium acetate as mobile phases, and quantified on LC-MS or LC-MS-MS systems. Calibration curves were constructed for each assay with drug-free human serum by the addition of varying concentrations of the antidepressants and their respective metabolites.
(§2) Serum concentrations in ng/mL were divided by the daily dose used by the person at the time of sampling, providing a serum concentration/dose ratio, and then multiplied by the defined daily dose (DDD), which is the assumed average maintenance dose per day for that drug used for its main indication in adults [28]. […] All concentrations presented and discussed in this article, including tables and figures, are dose-adjusted to the DDD of the drug.
(§3) For drugs where both the parent drug and the metabolite were measured, parent drug/metabolite concentration ratios during pregnancy were compared to baseline values as described above; ratios were loge-transformed and fitted into a linear mixed model, estimating the baseline ratios and the effect of each gestational week.
(§4) All model parameters, including variance components, were estimated by the method of maximum likelihood using STATA 13 command “mixed”. […] P values less than 0.05 were considered statistically significant.

[2] = in vivo
Description: as §1, §2, §3, §4

[3] = Dose-adjusted serum antidepressant concentrations across pregnancy compared to the women's own baseline (routine TDM, LC-MS, linear mixed model); format: in vivo, human; details: for Change of serum concentration in pregnancy compared to baseline (in words): fluoxetine and venlafaxine = active moiety; for Serum concentration in third trimester lower than baseline (reduction): mid third trimester (gestational week 34) vs baseline, value given as size of the reduction
Description: After obtaining approval from the Regional Committee for Medical and Health Research Ethics in Mid Norway, the Norwegian Centre for Research Data (Data Protection Official), the Norwegian Directorate of Health and the Medical Birth Registry of Norway (MBRN) publication council, serum concentration data for antidepressants were collected from the two largest TDM services for psychotropic drugs in Norway (i.e. Department of Clinical Pharmacology at St. Olav University Hospital in Trondheim, and Center for Psychopharmacology at Diakonhjemmet Hospital in Oslo). […] The antidepressant TDM data contain serum concentration measurements taken in a naturalistic setting from psychiatry inpatients and outpatients. In addition to measured serum concentrations, the databases contain information obtained from the requisition forms, such as the prescribed antidepressant dose, time of last drug intake, time of blood sampling, and types and doses of concomitant drugs.
First, a combined laboratory TDM file was created, containing all serum concentration measurements (for any drug) in the period October 1999 –December 2011 for all women of reproductive age (i.e. born 1950–2000). […] Using the unique 11-digit identification number assigned to all individuals living in Norway, the MBRN could identify all pregnant women in the TDM data set. […] For the current study we retrieved the following information: the personal identification number, the drug analysed, the measured drug serum concentration, time of last dose, time of sampling, drug dose, concomitant drug use, other clinical information, name of the responsible physician, gestational week at the time of sampling (calculated from the sampling date and the pregnancy onset date as determined by obstetric ultrasound if available, or by last menstruation), and date of delivery.
If the requisition form lacked information on drug dose the authors contacted the responsible physician, who attempted to obtain this information from the medical record. If we were unable to retrieve this information, the analysis was excluded.
Having identified the pregnant women and their individual pregnancy periods in the extracted data file, we used the original TDM databases to retrieve serum concentration measurements before and after pregnancy from the same women, to serve as baseline observations for each of the included subjects. […] These analyses were not used in the statistical model, only for visual comparison. The remaining 420 analyses were used for the statistical comparisons.
Since multiple measurements were available from the same patient a linear mixed model was used. […] Baseline measurements were set to gestational week 0 in the model. Then, the effect of gestational week on concentration compared to baseline could be estimated for each drug.
Data are presented as means with 95% confidence intervals.

[4] = cited from earlier work

| Compound | Change of parent compound or metabolite serum concentration in pregnancy (in words) [1] | Change from baseline conc., Estimate (parent compound or metabolite) [1] | Baseline conc., Estimate (parent compound or metabolite) [1] [ng/mL] | Loge serum concentration, Intercept estimate (parent compound or metabolite) [1] | Loge serum concentration, Change per gestational week estimate (parent compound or metabolite) [1] | Change of serum concentration in pregnancy compared to baseline (in words) ([3]; dose-adjusted) | Parent compound / metabolite ratio (PMR), change from baseline, estimate [1] | Parent compound / metabolite ratio (PMR), baseline estimate [1] | Parent compound / metabolite ratio (PMR), third trimester estimate [1] | Loge PMR, Intercept estimate [1] | Loge PMR, Change per gestational week estimate [1] | also measured |
| --- | --- | --- | --- | --- | --- | --- | --- | --- | --- | --- | --- | --- |
| NCCC(Oc1ccc(C(F)(F)F)cc1)c1ccccc1 (centres unmarked) [Norfluoxetine] | remain largely unchanged | 0% | 83.7 | 4.427 | 0.000 | – | – | – | – | – | – | – |
| CNCCCC1(c2ccc(F)cc2)OCc2cc(C#N)ccc21 (centres unmarked) [Desmethylescitalopram] | – | – | – | – | – | – | – | – | – | – | – | Loge serum concentration, Change per gestational week estimate (parent compound or metabolite) [2]: -0.004 |
| CN(C)CCC[C@@]1(c2ccc(F)cc2)OCc2cc(C#N)ccc21 [Escitalopram] | – | +24% | 8.4 | 2.129 | 0.006 | did not change significantly; also recorded: not statistically significant; also recorded: remain largely unchanged; also recorded: close to zero | +40% | 1.8 | 2.5 | 0.581 | 0.010 | concentration at 4 gestational week ([3]; female, human, serum, 10 mg/day, one analysis in week 4, dose-adjusted, read-out: Observed serum concentration, outlier not shown in Fig 2): 36 ng/mL; concentration at 5 gestational week ([3]; female, human, serum, 10 mg/day, one analysis in week 5, dose-adjusted, read-out: Observed serum concentration, outlier not shown in Fig 2): 40 ng/mL; Observed serum concentration, outlier not shown in Fig 2 ([3]; one analysis in week 0 (baseline), dose-adjusted): 36 ng/mL; Parent compound / metabolite ratio (PMR), change from baseline, estimate ([1]; listed as escitalopram): 40%; Change of concentrations throughout pregnancy (in words) ([4]; five pregnancies, ref Sit et al. [19]): only minor declines or no change |
| CN(C)CCCC1(c2ccc(F)cc2)OCc2cc(C#N)ccc21 (centres unmarked) [Citalopram] | – | -39% | 32.3 | 3.475 | -0.015 | remain largely unchanged | -13% | 2.6 | 2.3 | 0.973 | -0.004 | Serum concentration in third trimester lower than baseline (reduction) [3]: 24%; Change of parent compound / metabolite ratio in pregnancy (in words) ([1]; third trimester vs baseline): did not reach statistical significance; Third trimester concentrations lower than baseline values ([4]; 11 pregnancies, ref Heikkinen et al. [13]): 42%; Third trimester concentrations lower than baseline ([4]; two pregnancies, ref Sit et al. [19]): 26% |
| CN(C)CC(c1ccc(O)cc1)C1(O)CCCCC1 (centres unmarked) [O-desmethylvenlafaxine] | did not change | -13% | 91.5 | 4.516 | -0.004 | – | – | – | – | – | – | Change of metabolite levels in pregnancy (in words) ([4]; prospective study of seven pregnancies): no change |
| CN[C@H]1CC[C@@H](c2ccc(Cl)c(Cl)c2)c2ccccc21 [Sertraline] | increasing levels | +83% | 8.6 | 2.147 | 0.018 | statistically significant increase | -20% | 0.5 | 0.4 | -0.764 | -0.006 | Parent compound / metabolite ratio in mid third trimester lower than baseline ([1]; value printed as size of the decline): 20%; Change of concentrations in pregnancy in previous studies (in words) ([4]; eight and six pregnancies): variable/non-significant observations |
| COCCCC/C(=N\OCCN)c1ccc(C(F)(F)F)cc1 [Fluvoxamine] | – | – | – | – | – | – | – | – | – | – | – | Serum concentration in pregnancy as share of pre-pregnancy levels ([3]; drop to about this share of pre-pregnancy levels): about 50%; Serum concentration in third trimester lower than baseline (reduction) [3]: 56% |
